Columns and labels:
[1] = tested on: human patients with bilateral knee osteoarthritis; assay: Procedure pain (NPRS) due to intraarticular trans-capsaicin, shortened cooling protocol, Breg pad vs Elasto-Gel wrap (Example 9); type: in vivo; details: four patients (Example 9), 1 mg intraarticular
Protocol: (§1) Human patients experiencing osteoarthritic knee joint pain were subjected to two different protocols for intraarticular administration of trans-capsaicin. Temporary pain expected due to administration of capsaicin was analyzed, along with the intraarticular temperature of the knee joint and the temperature of the patient's skin in the area to be cooled.
(§2) One of the protocols utilized a Breg Knee WrapOn Polar Pad (as illustrated in FIG. 1) that utilizes circulating ice-water to achieve cooling, where the pad is placed on skin surrounding the knee in order to cool the knee joint. The other protocol utilized an Elasto-Gel All Purpose Therapy Wrap measuring 6 inches by 24 inches in size to cool the knee joint. The Elasto-Gel All Purpose Therapy Wrap was removed from a freezer (approximately 0° F.) just prior to use. A temperature probe was placed into the intraarticular space of the patient's knee joint to measure intraarticular temperature of the knee joint. A temperature probe was also placed on the skin in the area to be cooled in order to measure skin temperature in the area to be cooled. […]
as §2, with “by 24 inches, whereby the wrap is placed around the knee joint in order” for “by 24 inches in size”, “joint in order to cool” for “inches in size to cool”, “knee joint. At the discretion of the physician performing the procedure, in order to reduce discomfort for the patient, the protocol authorized the physician to instill a volume of 1-2 cc of 2% w/w lidocaine (without epinephrine) into the skin and subcutaneous tissue of the knee at the site of intra-articular probe insertion. A temperature” for “knee joint. A temperature”
Patients receiving cooling of the knee joint using the Elasto-Gel All Purpose Therapy Wrap were subjected to the following procedure: • Placement of intraarticular temperature probe and skin temperature probe. At the discretion of the physician performing the procedure, in order to reduce discomfort for the patient, the protocol authorized the physician to instill a volume of 1-2 cc of 2% w/w lidocaine (without epinephrine) into the skin and subcutaneous tissue of the knee at the site of intra-articular probe insertion. • Cooling using the designated technique was performed for 30 minutes (+/−2 minutes). • Cooling apparatus was removed from the patient's knee. • Intraarticular injection of lidocaine 2% w/w (without epinephrine) 15 mL solution into the patient's knee joint. • Intraarticular injection of the investigational medicinal product (IMP) was performed to deliver trans-capsaicin in the amount of 1 mg. The trans-capsaicin was injected, using the same needle as the lidocaine 2% w/w (without epinephrine), 3 minutes after the intra-articular injection of lidocaine 2% w/w (without epinephrine). The IMP was provided as a pre-filled syringe containing 2 mL of fluid containing trans-capsaicin at a concentration of 0.5 mg/mL. • Knee joint was flexed and extended five times over 1 minute to ensure appropriate distribution of IMP. • The temperature probe was removed approximately 30 minutes after removal of the cooling apparatus.
Pain due to injection of trans-capsaicin was assessed on a Numerical Pain Rating scale (0-10) for 75 minutes after injection of trans-capsaicin. A verbal NPRS was used to assess procedure pain during the study. […]

[2] = tested on: human patients with knee osteoarthritis; assay: Procedure pain (NPRS) due to intraarticular trans-capsaicin, Breg pad vs Elasto-Gel wrap cooling (Example 8); type: in vivo; details: four patients (Example 8), 1 mg intraarticular
Protocol: as §1
One of the protocols utilized a Breg Knee WrapOn Polar Pad (as illustrated in FIG. 1) that utilizes circulating ice-water to achieve cooling, where the pad is placed on skin surrounding the knee in order to cool the knee joint. The other protocol utilized an Elasto-Gel All Purpose Therapy Wrap measuring 6 inches by 24 inches in size, in order to cool the knee joint. A temperature probe was placed into the intraarticular space of the patient's knee joint to measure intraarticular temperature of the knee joint. A temperature probe was also placed on the skin in the area to be cooled in order to measure skin temperature in the area to be cooled.
Experimental procedure used was the same as described in Example 8 herein, except that an Elasto-Gel All Purpose Therapy Wrap measuring 6 inches by 24 inches in size was used to cool the knee joint, in lieu of the ice pack. The Elasto-Gel All Purpose Therapy Wrap was removed from a freezer (approximately 0° F.) just prior to use.

[3] = Ice-Gel Pack (Elasto-Gel wrap), 30 min
[4] = Ice-Gel Pack (Elasto-Gel wrap), 50 min
[5] = Ice-Gel Pack (Elasto-Gel wrap), 70 min
[6] = Ice-Gel Pack (Elasto-Gel wrap), 80 min
[7] = Ice-Gel Pack (Elasto-Gel wrap), 90 min
[8] = Ice-Gel Pack (Elasto-Gel wrap), 100 min
[9] = Ice-Gel Pack (Elasto-Gel wrap), 110 min
[10] = Ice-Gel Pack (Elasto-Gel wrap), Baseline
[11] = Standard Cooling Device (Breg pad), 30 min
[12] = Standard Cooling Device (Breg pad), 50 min
[13] = Standard Cooling Device (Breg pad), 70 min
[14] = Standard Cooling Device (Breg pad), 80 min
[15] = Standard Cooling Device (Breg pad), 90 min
[16] = Standard Cooling Device (Breg pad), 100 min
[17] = Standard Cooling Device (Breg pad), 110 min
[18] = Standard Cooling Device (Breg pad), Baseline

COc1cc(CNC(=O)CCCCC=CC(C)C)ccc1O [trans-capsaicin, N-[(4-hydroxy-3-methoxyphenyl)methyl]-8-methylnon-6-enamide]
Knee Pain (NPRS) [1, 3]: 0.0 (+/−0.0) | Knee Pain (NPRS) ([1]; Ice-Gel Pack (Elasto-Gel wrap), 40 min): 0.0 (+/−0.0) | Knee Pain (NPRS) [1, 4]: 1.5 (+/−2.4) | Knee Pain (NPRS) ([1]; Ice-Gel Pack (Elasto-Gel wrap), 60 min): 2.8 (+/−3.1) | Knee Pain (NPRS) [1, 5]: 1.0 (+/−0.8) | Knee Pain (NPRS) [1, 6]: 1.8 (+/−2.9) | Knee Pain (NPRS) [1, 7]: 2.5 (+/−2.9) | Knee Pain (NPRS) [1, 8]: 1.8 (+/−2.9) | Knee Pain (NPRS) [1, 9]: 0.8 (+/−1.5) | Knee Pain (NPRS) [1, 10]: 0.3 (+/−0.5) | Knee Pain (NPRS) [1, 11]: 0.0 (+/−0.0) | Knee Pain (NPRS) ([1]; Standard Cooling Device (Breg pad), 40 min): 0.5 (+/−1.0) | Knee Pain (NPRS) [1, 12]: 3.8 (+/−2.9) | Knee Pain (NPRS) ([1]; Standard Cooling Device (Breg pad), 60 min): 1.8 (+/−2.4) | Knee Pain (NPRS) [1, 13]: 1.0 (+/−2.0) | Knee Pain (NPRS) [1, 14]: 2.0 (+/−4.0) | Knee Pain (NPRS) [1, 15]: 1.5 (+/−2.4) | Knee Pain (NPRS) [1, 16]: 0.5 (+/−1.0) | Knee Pain (NPRS) [1, 17]: 2.0 (+/−4.0) | Knee Pain (NPRS) [1, 18]: 0.0 (+/−0.0) | Knee Pain (NPRS) ([2]; Ice-Gel Pack (Elasto-Gel wrap), 20 min): 0.8 (+/−0.5) | Knee Pain (NPRS) [2, 3]: 0.5 (+/−0.6) | Knee Pain (NPRS) [2, 4]: 0.8 (+/−1.0) | Knee Pain (NPRS) [2, 5]: 4.8 (+/−3.2) | Knee Pain (NPRS) [2, 6]: 4.3 (+/−3.0) | Knee Pain (NPRS) [2, 7]: 3.0 (+/−1.8) | Knee Pain (NPRS) [2, 8]: 2.8 (+/−1.5) | Knee Pain (NPRS) [2, 9]: 2.8 (+/−2.1) | Knee Pain (NPRS) ([2]; Ice-Gel Pack (Elasto-Gel wrap), 120 min): 4.5 (+/−3.3) | Knee Pain (NPRS) ([2]; Ice-Gel Pack (Elasto-Gel wrap), 130 min): 3.0 (+/−1.4) | Knee Pain (NPRS) [2, 10]: 1.0 (+/−0.8) | Knee Pain (NPRS) ([2]; Standard Cooling Device (Breg pad), 20 min): 0.5 (+/−0.6) | Knee Pain (NPRS) [2, 11]: 0.5 (+/−0.6) | Knee Pain (NPRS) [2, 12]: 0.8 (+/−1.0) | Knee Pain (NPRS) [2, 13]: 2.5 (+/−3.7) | Knee Pain (NPRS) [2, 14]: 2.5 (+/−3.0) | Knee Pain (NPRS) [2, 15]: 2.5 (+/−2.4) | Knee Pain (NPRS) [2, 16]: 1.8 (+/−1.5) | Knee Pain (NPRS) [2, 17]: 1.8 (+/−1.5) | Knee Pain (NPRS) ([2]; Standard Cooling Device (Breg pad), 120 min): 1.3 (+/−1.3) | Knee Pain (NPRS) ([2]; Standard Cooling Device (Breg pad), 130 min): 1.5 (+/−1.0) | Knee Pain (NPRS) [2, 18]: 0.5 (+/−0.6)
